In the supplement of paper PMC11061612:

Legend:
Carboplatin = compound: C1CC(C1)(C(=O)[O-])C(=O)[O-].N.N.[Pt+2] [Carboplatin]; details: max 10 µM
In short: (§1)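 Cancer cell lines were seeded in 1536-well plates in 7.5 μl DMEM/F12 or RPMI with 10% FBS, held 24 hours at 37°C and 5% CO2, then dosed for 72 hours (final DMSO typically 0.2%). Viability was read by CellTiter-Glo 2.0 luminescence and scaled between blank-well and DMSO-well means. The single-agent IC50 comes from dose responses fitted to a two-parameter logistic curve with a non-linear mixed effects model.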

AZD5363 = compound: C1CN(CCC1(C(=O)N[C@@H](CCO)C2=CC=C(C=C2)Cl)N)C3=NC=NC4=C3C=CN4 [AZD5363]; details: max 10 µM
In short: as §1

AZD1775 = compound: C=CCn1c(=O)c2cnc(Nc3ccc(N4CCN(C)CC4)cc3)nc2n1-c1cccc(C(C)(C)O)n1 [AZD1775]; details: max 3 µM
In short: as §1

Trametinib = compound: CC(=O)Nc1cccc(-n2c(=O)n(C3CC3)c(=O)c3c(Nc4ccc(I)cc4F)n(C)c(=O)c(C)c32)c1 [Trametinib]; details: max 1 µM
In short: as §1

Paclitaxel = compound: CC(=O)O[C@H]1C(=O)[C@@]2(C)[C@H]([C@H](OC(=O)c3ccccc3)[C@]3(O)C[C@H](OC(=O)[C@H](O)[C@@H](NC(=O)c4ccccc4)c4ccccc4)C(C)=C1C3(C)C)[C@]1(OC(C)=O)CO[C@@H]1C[C@@H]2O [Paclitaxel]; details: max 3 µM
In short: as §1

Palbociclib = compound: CC(=O)c1c(C)c2cnc(Nc3ccc(N4CCNCC4)cn3)nc2n(C2CCCC2)c1=O [Palbociclib]; details: max 10 µM
In short: as §1

AZD1390 = compound: CC(C)n1c(=O)n(C)c2cnc3cc(F)c(-c4ccc(OCCCN5CCCCC5)nc4)cc3c21 [AZD1390]; details: max 0.3 µM
In short: as §1

Venetoclax = compound: CC1(C)CCC(CN2CCN(c3ccc(C(=O)NS(=O)(=O)c4ccc(NCC5CCOCC5)c([N+](=O)[O-])c4)c(Oc4cnc5[nH]ccc5c4)c3)CC2)=C(c2ccc(Cl)cc2)C1 [Venetoclax]; details: max 1 µM
In short: as §1

Dasatinib = compound: CC1=C(C(=CC=C1)Cl)NC(=O)C2=CN=C(S2)NC3=CC(=NC(=N3)C)N4CCN(CC4)CCO [Dasatinib]; details: max 2 µM
In short: as §1

SG3199 = compound: CC1=CN2[C@@H](C1)C=NC3=CC(=C(C=C3C2=O)OC)OCCCCCOC4=C(C=C5C(=C4)N=C[C@@H]6CC(=CN6C5=O)C)OC [SG3199]; details: max 0.001 µM
In short: as §1

AZD2811 = compound: CCN(CCO)CCCOc1ccc2c(Nc3cc(CC(=O)Nc4cccc(F)c4)[nH]n3)ncnc2c1 [AZD2811]; details: max 1 µM
In short: as §1

SN-38 = compound: CCc1c2c(nc3ccc(O)cc13)-c1cc3c(c(=O)n1C2)COC(=O)[C@]3(O)CC [SN-38]; details: max 0.3 µM
In short: as §1

AZD0156 = compound: CN(C)CCCOc1ccc(-c2ccc3ncc4c(c3c2)n(C2CCOCC2)c(=O)n4C)cn1 [AZD0156]; details: max 3 µM
In short: as §1

AZD4320 = compound: CN(CC[C@H](CSC1=CC=CC=C1)NC2=C(C=C(C=C2)S(=O)(=O)NC(=O)C3=CC=C(C=C3)N4CCC(CC4)[C@H](C5=CC=CC=C5C6=CC=C(C=C6)Cl)O)S(=O)(=O)C(F)(F)F)CCO [AZD4320]; details: max 1 µM
In short: as §1

Alisertib = compound: COc1cc(Nc2ncc3c(n2)-c2ccc(Cl)cc2C(c2c(F)cccc2OC)=NC3)ccc1C(=O)O [Alisertib]; details: max 10 µM
In short: as §1

Etoposide = compound: COc1cc([C@@H]2c3cc4c(cc3[C@@H](O[C@@H]3O[C@@H]5CO[C@@H](C)O[C@H]5[C@H](O)[C@H]3O)[C@H]3COC(=O)[C@H]23)OCO4)cc(OC)c1O [Etoposide]; details: max 10 µM
In short: as §1

Gefitinib = compound: COc1cc2ncnc(Nc3ccc(F)c(Cl)c3)c2cc1OCCCN1CCOCC1 [Gefitinib]; details: max 10 µM
In short: as §1

Prexasertib = compound: COc1cccc(OCCCN)c1-c1cc(Nc2cnc(C#N)cn2)n[nH]1 [Prexasertib]; details: max 1 µM
In short: as §1

Doxorubicin = compound: COc1cccc2c1C(=O)c1c(O)c3c(c(O)c1C2=O)C[C@@](O)(C(=O)CO)C[C@@H]3O[C@H]1C[C@H](N)[C@H](O)[C@H](C)O1 [Doxorubicin]; details: max 1 µM
In short: as §1

AZD5153 = compound: COc1nnc2ccc(N3CCC(c4ccc(OCCN5CCN(C)C(=O)[C@H]5C)cc4)CC3)nn12 [AZD5153]; details: max 1 µM
In short: as §1

Lapatinib = compound: CS(=O)(=O)CCNCc1ccc(-c2ccc3ncnc(Nc4ccc(OCc5cccc(F)c5)c(Cl)c4)c3c2)o1 [Lapatinib]; details: max 10 µM
In short: as §1

AZD8186 = compound: C[C@@H](Nc1cc(F)cc(F)c1)c1cc(C(=O)N(C)C)cc2c(=O)cc(N3CCOCC3)oc12 [AZD8186]; details: max 10 µM
In short: as §1

Crizotinib = compound: C[C@@H](Oc1cc(-c2cnn(C3CCNCC3)c2)cnc1N)c1c(Cl)ccc(F)c1Cl [Crizotinib]; details: max 10 µM
In short: as §1

Savolitinib = compound: C[C@@H](c1ccc2nccn2c1)n1nnc2ncc(-c3cnn(C)c3)nc21 [Savolitinib]; details: max 1 µM
In short: as §1

AZD6738 = compound: C[C@@H]1COCCN1C2=NC(=NC(=C2)C3(CC3)[S@](=N)(=O)C)C4=C5C=CNC5=NC=C4 [AZD6738]; details: max 10 µM
In short: as §1

AZD5991 = compound: Cc1c2c(nn1C)CSCc1cc(n(C)n1)CSc1cc(c3ccccc3c1)OCCCc1c(C(=O)O)n(C)c3c-2c(Cl)ccc13 [AZD5991]; details: max 1 µM
In short: as §1

AZD7648 = compound: Cc1cc2ncnn2cc1Nc1ncc2c(n1)n(C1CCOCC1)c(=O)n2C [AZD7648]; details: max 10 µM
In short: as §1

Taselisib = compound: Cc1nc(-c2cn3c(n2)-c2ccc(-c4cnn(C(C)(C)C(N)=O)c4)cc2OCC3)n(C(C)C)n1 [Taselisib]; details: max 10 µM
In short: as §1

Selumetinib = compound: Cn1cnc2c(F)c(Nc3ccc(Br)cc3Cl)c(C(=O)NOCCO)cc21 [Selumetinib]; details: max 10 µM
In short: as §1

SRA737 = compound: N#Cc1cnc(Nc2cc(NC[C@H]3CNCCO3)c(C(F)(F)F)cn2)cn1 [SRA737]; details: max 10 µM
In short: as §1

MK-2206 = compound: NC1(c2ccc(-c3nc4ccn5c(=O)[nH]nc5c4cc3-c3ccccc3)cc2)CCC1 [MK-2206]; details: max 10 µM
In short: as §1

Gemcitabine = compound: Nc1ccn([C@@H]2O[C@H](CO)[C@@H](O)C2(F)F)c(=O)n1 [Gemcitabine]; details: max 0.3 µM
In short: as §1

[1] = compound: O=C(Nc1ccc2[nH]nc(-c3ccncc3)c2c1)[C@@H]1CCN(CC(=O)N2CCN(c3ccc(-c4ncccn4)cc3)CC2)C1; details: max 5 µM
In short: as §1

Olaparib = compound: O=C(c1cc(Cc2n[nH]c(=O)c3ccccc23)ccc1F)N1CCN(C(=O)C2CC2)CC1 [Olaparib]; details: max 10 µM
In short: as §1

5-Fluorouracil = compound: O=c1[nH]cc(F)c(=O)[nH]1 [5-Fluorouracil]; details: max 20 µM
In short: as §1

Cell Line	IC50, cell viability 72 h (Carboplatin)	IC50, cell viability 72 h (AZD5363)	IC50, cell viability 72 h (AZD1775)	IC50, cell viability 72 h (Trametinib)	IC50, cell viability 72 h (Paclitaxel)	IC50, cell viability 72 h (Palbociclib)	IC50, cell viability 72 h (AZD1390)	IC50, cell viability 72 h (Venetoclax)	IC50, cell viability 72 h (Dasatinib)	IC50, cell viability 72 h (SG3199)	IC50, cell viability 72 h (AZD2811)	IC50, cell viability 72 h (SN-38)	IC50, cell viability 72 h (AZD0156)	IC50, cell viability 72 h (AZD4320)	IC50, cell viability 72 h (Alisertib)	IC50, cell viability 72 h (Etoposide)	IC50, cell viability 72 h (Gefitinib)	IC50, cell viability 72 h (Prexasertib)	IC50, cell viability 72 h (Doxorubicin)	IC50, cell viability 72 h (AZD5153)	IC50, cell viability 72 h (Lapatinib)	IC50, cell viability 72 h (AZD8186)	IC50, cell viability 72 h (Crizotinib)	IC50, cell viability 72 h (Savolitinib)	IC50, cell viability 72 h (AZD6738)	IC50, cell viability 72 h (AZD5991)	IC50, cell viability 72 h (AZD7648)	IC50, cell viability 72 h (Taselisib)	IC50, cell viability 72 h (Selumetinib)	IC50, cell viability 72 h (SRA737)	IC50, cell viability 72 h (MK-2206)	IC50, cell viability 72 h (Gemcitabine)	IC50, cell viability 72 h [1]	IC50, cell viability 72 h (Olaparib)	IC50, cell viability 72 h (5-Fluorouracil)
IM-9 (Non-Cancerous)	> 10000 nM	6700 nM	205 nM	6.11 nM	4.97 nM	4920 nM	> 300 nM	> 1000 nM	> 2000 nM	> 1 nM	71.3 nM	2.53 nM	> 3000 nM	769 nM	26.5 nM	97.4 nM	> 10000 nM	12.4 nM	52.8 nM	89.4 nM	7530 nM	> 10000 nM	819 nM	> 1000 nM	1040 nM	667 nM	> 10000 nM	> 10000 nM	218 nM	1520 nM	> 10000 nM	1.97 nM	72.7 nM	> 10000 nM	5020 nM
JHH-2 (Hepatocellular Carcinoma)	> 10000 nM	4770 nM	1860 nM	181 nM	365 nM	> 10000 nM	> 300 nM	> 1000 nM	188 nM	> 1 nM	> 1000 nM	77.6 nM	> 3000 nM	> 1000 nM	> 10000 nM	> 10000 nM	> 10000 nM	57.5 nM	> 1000 nM	> 1000 nM	> 10000 nM	297 nM	> 10000 nM	> 1000 nM	6800 nM	> 1000 nM	> 10000 nM	3050 nM	> 10000 nM	> 10000 nM	5260 nM	> 300 nM	3440 nM	> 10000 nM	> 20000 nM
JHU-022 (Oral Cavity Carcinoma)	> 10000 nM	> 10000 nM	1640 nM	219 nM	2090 nM	> 10000 nM	> 300 nM	> 1000 nM	431 nM	> 1 nM	> 1000 nM	35.7 nM	> 3000 nM	> 1000 nM	> 10000 nM	> 10000 nM	811 nM	94.4 nM	505 nM	> 1000 nM	1930 nM	> 10000 nM	> 10000 nM	> 1000 nM	> 10000 nM	> 1000 nM	> 10000 nM	515 nM	5560 nM	> 10000 nM	> 10000 nM	278 nM	2720 nM	> 10000 nM	> 20000 nM
KYSE-220 (Esophageal Squamous Cell Carcinoma)	> 10000 nM	> 10000 nM	355 nM	287 nM	42.4 nM	> 10000 nM	> 300 nM	> 1000 nM	> 2000 nM	> 1 nM	> 1000 nM	17.5 nM	> 3000 nM	> 1000 nM	9200 nM	2520 nM	> 10000 nM	16.3 nM	94.3 nM	358 nM	4250 nM	> 10000 nM	5480 nM	> 1000 nM	1190 nM	> 1000 nM	> 10000 nM	1220 nM	9200 nM	> 10000 nM	> 10000 nM	33 nM	> 5000 nM	> 10000 nM	> 20000 nM
LU-165 (Small Cell Lung Carcinoma)	> 10000 nM	> 10000 nM	2940 nM	> 1000 nM	> 3000 nM	> 10000 nM	> 300 nM	> 1000 nM	> 2000 nM	> 1 nM	> 1000 nM	> 300 nM	> 3000 nM	> 1000 nM	> 10000 nM	> 10000 nM	> 10000 nM	220 nM	> 1000 nM	> 1000 nM	> 10000 nM	> 10000 nM	> 10000 nM	> 1000 nM	> 10000 nM	> 1000 nM	> 10000 nM	> 10000 nM	> 10000 nM	> 10000 nM	> 10000 nM	> 300 nM	> 5000 nM	> 10000 nM	> 20000 nM
